{
  "source": "patent US20120202756A1",
  "about": "“USE OF PRODRUGS TO AVOID GI MEDIATED ADVERSE EVENTS” (priority 2009, published 2012)",
  "key": {"Streptococcus pyogenes": {"system": "Streptococcus pyogenes", "assay": "MIC, clindamycin prodrugs", "format": "cell-based"}, "Bifidobacterium longum": {"system": "Bifidobacterium longum", "assay": "MIC, clindamycin prodrugs", "format": "cell-based", "settings": "NCTC 11818"}, "Listeria monocytogenes": {"system": "Listeria monocytogenes", "settings": "antibiotic-susceptible clinical isolate"}, "[1]": {"settings": "relative bioavailability of clindamycin vs dosing clindamycin itself, male rats, mean", "protocol": "Serial tail vein blood samples were subsequently collected via an indwelling cannuala into EDTA tubes containing a stabilising cocktail (including 6 mg/mL NaF) to prevent post collection enzymic hydrolysis of the prodrug."}, "Group C Streptococcus": {"system": "Group C Streptococcus", "assay": "MIC, clindamycin prodrugs", "format": "cell-based", "settings": "antibiotic-susceptible clinical isolate"}, "[2]": {"system": "Bifidobacterium adolescentis", "assay": "MIC, clindamycin prodrugs", "format": "cell-based", "settings": "NCTC 11814"}, "Propionibacterium acnes": {"system": "Propionibacterium acnes", "assay": "MIC, clindamycin prodrugs", "format": "cell-based"}, "Clostridium sporogenes": {"system": "Clostridium sporogenes", "assay": "MIC, clindamycin prodrugs", "format": "cell-based", "settings": "ATCC 3584"}, "Campylobacter coli": {"system": "Campylobacter coli", "assay": "MIC, clindamycin prodrugs", "format": "cell-based"}, "[3]": {"assay": "Stability in USP simulated gastric juice", "format": "in vitro ADME", "settings": "USP SGF pH 1.1, pepsin […], prodrug 20 μg/mL", "from_the_text": "To minimize the direct inhibitory action of this drug on gastric emptying/gut motility—and resultant nausea—the prodrug should not undergo premature chemical or enzymic cleavage back to the parent drug while within the gut lumen."}, "[4]": {"system": "Fusobacterium necrophorum", "settings": "clinical isolate"}, "Clostridium novyi": {"system": "Clostridium novyi", "settings": "ATCC 19402"}, "Streptococcus pneumoniae": {"system": "Streptococcus pneumoniae", "assay": "MIC, clindamycin prodrugs", "format": "cell-based"}, "[5]": {"system": "Staphylococcus haemolyticus", "assay": "MIC, clindamycin prodrugs", "format": "cell-based", "settings": "antibiotic susceptible clinical isolate"}, "Fusobacterium nucleatum": {"system": "Fusobacterium nucleatum", "settings": "clinical isolate"}, "[6]": {"system": "Porphyromonas endodontalis", "settings": "clinical isolate"}, "[7]": {"system": "Streptococcus constellatus", "settings": "antibiotic-susceptible clinical isolate"}, "Streptococcus mitis": {"system": "Streptococcus mitis", "settings": "antibiotic-susceptible clinical isolate"}, "Bifidobacterium dentium": {"system": "Bifidobacterium dentium", "assay": "MIC, clindamycin prodrugs", "format": "cell-based", "settings": "NCTC 11816"}, "Campylobacter jejuni": {"system": "Campylobacter jejuni", "assay": "MIC, clindamycin prodrugs", "format": "cell-based"}, "Veillonella spp.": {"system": "Veillonella spp.", "settings": "clinical isolate"}, "[8]": {"system": "Bacteroides thetaiotamicron", "assay": "MIC, clindamycin prodrugs", "format": "cell-based"}, "Prevotella bivia": {"system": "Prevotella bivia", "settings": "ATCC 29303"}, "[9]": {"system": "Staphylococcus epidermidis", "assay": "MIC, clindamycin prodrugs", "format": "cell-based"}, "Staphylococcusaureus": {"system": "Staphylococcusaureus", "assay": "MIC, clindamycin prodrugs", "format": "cell-based"}, "Helicobacter pylori": {"system": "Helicobacter pylori", "assay": "MIC, clindamycin prodrugs", "format": "cell-based"}, "Bacteroides fragilis": {"system": "Bacteroides fragilis", "assay": "MIC, clindamycin prodrugs", "format": "cell-based"}, "Veillonella atypical": {"system": "Veillonella atypical", "assay": "MIC, clindamycin prodrugs", "format": "cell-based", "settings": "NCTC 11830"}, "[10]": {"system": "Peptostreptococcus magnus", "settings": "clinical isolate"}, "Clostridium perfringens": {"system": "Clostridium perfringens", "assay": "microbe, parasite or virus in culture", "format": "cell-based"}, "Prevotella intermedia": {"system": "Prevotella intermedia", "settings": "clinical isolate"}, "Veillonella parvula": {"system": "Veillonella parvula", "assay": "MIC, clindamycin prodrugs", "format": "cell-based", "settings": "NCTC 11810"}, "[11]": {"system": "Porphyromonas assacharolyticus", "settings": "clinical isolate"}, "Eggerthella lenta": {"system": "Eggerthella lenta", "assay": "MIC, clindamycin prodrugs", "format": "cell-based"}, "Prevotella denticola": {"system": "Prevotella denticola", "settings": "clinical isolate"}, "Enterococcus faecium": {"system": "Enterococcus faecium", "settings": "vancomycin-susceptible clinical isolate"}, "[12]": {"system": "Prevotella melaninogenicus", "assay": "MIC, clindamycin prodrugs", "format": "cell-based"}, "Corynebacterium jeikeium": {"system": "Corynebacterium jeikeium", "settings": "antibiotic-susceptible clinical isolate"}, "[13]": {"settings": "antibiotic-susceptible clinical isolate"}},
  "note": "Where two headings read alike, the source gives them in different places.",
  "data": [
    {"smiles": "CCCC1CC(C(=O)NC(C(C)Cl)C2OC(SC)C(OC(=O)CCCC(=O)Nc3ccc(C(=O)O)cc3)C(O)C2O)N(C)C1.O=C(O)C(F)(F)F", "note": "(centres unmarked) [Clindamycin glutaryl PABA ester, Clindamycin-2-(glutaryl-PABA) ester trifluoroacetate]", "values": [
      {"measurement": "Minimum inhibitory concentration", "setting": "Streptococcus pyogenes; Macrolide (MLS) resistant clinical isolate", "result": 4, "unit": "µg/mL"},
      {"measurement": "Minimum inhibitory concentration", "setting": "Streptococcus pyogenes; [13]", "result": 2, "unit": "µg/mL"},
      {"measurement": "Minimum inhibitory concentration", "setting": "Bifidobacterium longum", "result": 2, "unit": "µg/mL"},
      {"measurement": "Minimum inhibitory concentration", "setting": "Listeria monocytogenes", "result": 32, "unit": "µg/mL"},
      {"measurement": "Frel", "setting": "[1]", "result": 51, "unit": "%"},
      {"measurement": "Frel", "setting": "[1]; listed as Clindamycin glutaryl PABA ethyl ester", "result": 51, "unit": "%"},
      {"measurement": "Minimum inhibitory concentration", "setting": "Group C Streptococcus", "result": 2, "unit": "µg/mL"},
      {"measurement": "Minimum inhibitory concentration", "setting": "[2]", "result": 2, "unit": "µg/mL"},
      {"measurement": "Minimum inhibitory concentration", "setting": "Propionibacterium acnes", "result": 8, "unit": "µg/mL"},
      {"measurement": "Minimum inhibitory concentration", "setting": "Propionibacterium acnes; clinical isolate MIC clindamycin 0.5 mg/L", "result": 8, "unit": "µg/mL"},
      {"measurement": "Minimum inhibitory concentration", "setting": "Clostridium sporogenes", "result": ">64", "unit": "µg/mL"},
      {"measurement": "Minimum inhibitory concentration", "setting": "Campylobacter coli; ATCC 33559", "result": "≦0.03 ug/mL"},
      {"measurement": "Minimum inhibitory concentration", "setting": "Campylobacter coli; clinical isolate", "result": 0.06, "unit": "µg/mL"},
      {"measurement": "Simulated gastric juice (1 h, 37° C.) % active drug generated", "setting": "[3]", "result": "<1", "unit": "%"},
      {"measurement": "Minimum inhibitory concentration", "setting": "[4]", "result": 1, "unit": "µg/mL"},
      {"measurement": "Minimum inhibitory concentration", "setting": "Clostridium novyi", "result": 4, "unit": "µg/mL"},
      {"measurement": "Minimum inhibitory concentration", "setting": "Streptococcus pneumoniae; ATCC 49619 antibiotic-susceptible type strain", "result": 2, "unit": "µg/mL"},
      {"measurement": "Minimum inhibitory concentration", "setting": "Streptococcus pneumoniae; penicillin-susceptible clinical isolate", "result": 1, "unit": "µg/mL"},
      {"measurement": "Minimum inhibitory concentration", "setting": "[5]", "result": 4, "unit": "µg/mL"},
      {"measurement": "Minimum inhibitory concentration", "setting": "Fusobacterium nucleatum", "result": 2, "unit": "µg/mL"},
      {"measurement": "Minimum inhibitory concentration", "setting": "[6]", "result": 0.12, "unit": "µg/mL"},
      {"measurement": "Minimum inhibitory concentration", "setting": "[7]", "result": 2, "unit": "µg/mL"},
      {"measurement": "Minimum inhibitory concentration", "setting": "Streptococcus mitis", "result": 0.5, "unit": "µg/mL"},
      {"measurement": "Minimum inhibitory concentration", "setting": "Bifidobacterium dentium", "result": 2, "unit": "µg/mL"},
      {"measurement": "Minimum inhibitory concentration", "setting": "Campylobacter jejuni; ATCC 33560", "result": "≦0.03 ug/mL"},
      {"measurement": "Minimum inhibitory concentration", "setting": "Campylobacter jejuni; clinical isolate", "result": "≦0.03 ug/mL"},
      {"measurement": "Minimum inhibitory concentration", "setting": "Veillonella spp.", "result": 1, "unit": "µg/mL"},
      {"measurement": "Minimum inhibitory concentration", "setting": "[8]; ATCC 29741", "result": ">64", "unit": "µg/mL"},
      {"measurement": "Minimum inhibitory concentration", "setting": "[8]; NCTC 10582", "result": ">64", "unit": "µg/mL"},
      {"measurement": "Minimum inhibitory concentration", "setting": "Prevotella bivia", "result": 1, "unit": "µg/mL"},
      {"measurement": "Minimum inhibitory concentration", "setting": "[9]; antibiotic susceptible clinical isolate", "result": 4, "unit": "µg/mL"},
      {"measurement": "Minimum inhibitory concentration", "setting": "[9]; methicillin-resistant clinical isolate", "result": 8, "unit": "µg/mL"},
      {"measurement": "Minimum inhibitory concentration", "setting": "Staphylococcusaureus; ATCC 25923 - antibiotic-susceptible type strain", "result": 4, "unit": "µg/mL"},
      {"measurement": "Minimum inhibitory concentration", "setting": "Staphylococcusaureus; ATCC 29213 - antibiotic-susceptible type strain", "result": 4, "unit": "µg/mL"},
      {"measurement": "Minimum inhibitory concentration", "setting": "Staphylococcusaureus; ATCC 43300 - methicillin-resistant type strain", "result": ">64", "unit": "µg/mL"},
      {"measurement": "Minimum inhibitory concentration", "setting": "Helicobacter pylori; ATCC 43504", "result": "≦0.03 ug/mL"},
      {"measurement": "Minimum inhibitory concentration", "setting": "Helicobacter pylori; clinical isolate (r56)", "result": "≦0.03 ug/mL"},
      {"measurement": "Minimum inhibitory concentration", "setting": "Helicobacter pylori; clinical isolate (r57)", "result": "≦0.03 ug/mL"},
      {"measurement": "Minimum inhibitory concentration", "setting": "Helicobacter pylori; clinical isolate (r100)", "result": "≦0.03 ug/mL"},
      {"measurement": "Minimum inhibitory concentration", "setting": "Helicobacter pylori; clinical isolate (r101)", "result": "≦0.03 ug/mL"},
      {"measurement": "Minimum inhibitory concentration", "setting": "Bacteroides fragilis; ATCC 25285", "result": 64, "unit": "µg/mL"},
      {"measurement": "Minimum inhibitory concentration", "setting": "Bacteroides fragilis; clinical isolate", "result": 16, "unit": "µg/mL"},
      {"measurement": "Minimum inhibitory concentration", "setting": "Veillonella atypical", "result": 4, "unit": "µg/mL"},
      {"measurement": "Minimum inhibitory concentration", "setting": "[10]", "result": 64, "unit": "µg/mL"},
      {"measurement": "Minimum inhibitory concentration", "setting": "Clostridium perfringens; ATCC 13124", "result": 8, "unit": "µg/mL"},
      {"measurement": "Minimum inhibitory concentration", "setting": "Clostridium perfringens; [13]", "result": 8, "unit": "µg/mL"},
      {"measurement": "Minimum inhibitory concentration", "setting": "Prevotella intermedia", "result": 0.12, "unit": "µg/mL"},
      {"measurement": "Minimum inhibitory concentration", "setting": "Veillonella parvula", "result": 4, "unit": "µg/mL"},
      {"measurement": "Minimum inhibitory concentration", "setting": "[11]", "result": 0.12, "unit": "µg/mL"},
      {"measurement": "Minimum inhibitory concentration", "setting": "Eggerthella lenta; ATCC 43055", "result": 16, "unit": "µg/mL"},
      {"measurement": "Minimum inhibitory concentration", "setting": "Eggerthella lenta; clinical isolate", "result": 16, "unit": "µg/mL"},
      {"measurement": "Minimum inhibitory concentration", "setting": "Prevotella denticola", "result": 4, "unit": "µg/mL"},
      {"measurement": "Minimum inhibitory concentration", "setting": "Enterococcus faecium", "result": ">64", "unit": "µg/mL"},
      {"measurement": "Minimum inhibitory concentration", "setting": "[12]; clinical isolate (first listed, r37)", "result": 0.5, "unit": "µg/mL"},
      {"measurement": "Minimum inhibitory concentration", "setting": "[12]; clinical isolate (second listed, r38)", "result": 1, "unit": "µg/mL"},
      {"measurement": "Minimum inhibitory concentration", "setting": "Corynebacterium jeikeium", "result": ">64", "unit": "µg/mL"}
    ]}
  ]
}
